Assay results reported in patent publication US10166237B2, “Compounds and methods for inducing chondrogenesis” (The Scripps Research Institute, priority 2011, dated 2019).

Experiments:
[1] = system: primary bovine chondrocytes; experiment: inhibition of cytokine-induced nitric oxide release (Greiss reaction); assay type: cell-based; conditions: Bos taurus, Chondrocyte; second value of the cell (after the slash); TNFα and oncostatin M, 48 hours; read-out: NO INHIBTION μM IC50
Text: In the screen, hMSCs were used as a surrogate to future targeting of the resident MSCs with the cartilage joint. It was in that setting upon which we identified PRO1. In a joint injury, the primary cell type a therapeutic would have contact with is the chondrocyte. Although cartilage or chondrocyte-targeted screening has not lead to the development of a successful drug modifying osteoarthritis drug (DMOAD) to date, it is believed that a stem cell-based therapeutic would protect and even repair the existing chondrocytes. Therefore, protection of the articular chondrocytes and cartilage from a mature bovine knee was assessed. PRO1 and its analogues were incubated with primary bovine chondrocytes or cartilage explants cultures grown in the presence of TNFα and oncostatin M to mimic the cytokine-induced damage that can occur during OA. In the presence of the cytokine cocktail, in vitro cultured primary chondrocytes released 4-5 fold more nitric oxide (NO) than the untreated chondrocytes (50 μM vs 10 μM) as measured by the Greiss reaction. In cells treated with the cytokine cocktail and PRO1, the small molecule could effectively block the release of NO by up to 70% FIG. 2C). Similarly, in ex vivo treated cartilage explants, cytokine-induced release of glycosaminoglycans (GAG) was reduced by up to 60% by PRO1 (FIG. 2D). Finally, hMSC were grown in pellet culture for 21 days.
(§1) Primary hMSCs were plated (10,000/well) in 384-well plates and cultured for 18 days. The cells were fixed with 4% formalin, permeabilized with triton (0.5%), digested with 0.5 mg/ml collagenase II to unwind the collagen fibrils, and then immunostained with an antibody recognizing type II collagen. DAPI (2 μg/ml) was added to visualize the nuclei. The chondrogenic nodules stained positive for type II collagen but lacked expression of type X collagen and osteocalcin, markers for chondrocyte hypertrophy and osteoblasts, respectively (not shown). 10,000 hMSCs (passages 3-5) were plated in Greiner 384-well low-bottom plates on day 1. The cells were allowed to adhere and stimulated for 48 hrs (days 2-3) with the indicated stimuli in MSC growth media (Millipore). The media was then removed and replaced with serum-free DMEM for an additional 16 days. This media was replenished on days 10 and 15 of the assay. Primary bovine chondrocytes were isolated from the articular surfaces from mature knees. After one week of culture, 8,500 cells were trypsinized and plated in Greiner 384-well white clear-bottom plates in growth media. […] 20 μl of the supernatant was mixed with 20 μl of the Greiss reagent and quantitated at 540 nm as described by the Promega kit instructions. Bovine cartilage explants (cut in circular explants in a 96 well plate) were cultured in the presence of 20 ng/ml TNFα and 10 ng/ml oncostatin M to induce GAG release for 72 hours (FIG. 2D). PRO1 was added at the indicated concentrations during the entire 72 hrs. […] Parafin sections were hydrated, incubated in low pH Antigen unmasking solution (Vector) at 90 C for 10 minutes, permeabilized with 0.1% collagenase II (only for the sections stained with type II collagen) for 10 minutes, blocked with CAS block for 10 minutes and then incubated with the primary antibody (type II collagen, aggrecan or Timp1) antibody (Abcam) overnight at 4 C. The antigens were visualized through standard ABC detection methods and developed with DAB. Representative of 3 sections stained/treatment group (independent experiments).

[2] = system: human mesenchymal stem cells (hMSCs); experiment: chondrogenic nodule formation by hMSCs (high throughput screen); assay type: cell-based; conditions: Homo sapiens, Mesenchymal stem cells; first value of the cell (before the slash); read-out: CHONDROGENIC μM EC50
Protocol: The primary screening assay was based upon the development of chondrogenic nodules. Chondrocytes can grow in monolayer in vitro, but to more closely mimic their native environment in the joint, the cells are routinely cultured in non-adherent conditions such as in pellet cultures or alginate bead suspensions.
In the actual screen of a library of 22,000 structurally diverse heterocycles, 10^4 primary hMSCs were plated in 384 well plates in serum free DMEM. The cells were treated with 5 μM of each compound and incubated for 4 days. […] To facilitate high throughput imaged-based detection, the chondrogenic nodules were stained with […]. The Nile Red stained nodules were quantified on an Acumen eX3 (high content imaging device) by excitation with a 488 laser for rapid detection of the nodules.
Primary hMSCs grown in a 96 well Greiner plates (50,000/well) were incubated for 4 days in the presence of the 5 uM of each DMSO or 100 nM of PRO1. On day 4, the cells were fixed with 4% formalin for 10 minutes, washed and stained with 1 μg/ml of Rhodamine B for 2 hours at room temperature.

hMSCs = experiment: type II collagen expression in hMSC cultures (18 day assay); assay type: cell-based, human; conditions: for EC50: Homo sapiens
Protocol: The chondrogenic differentiation event was initiated quickly even though a fully differentiated chondrocyte phenotype cannot be assessed prior to 14 days in culture. In an 18 day assay, compound treatment was only required for the first 48 hrs and followed by removal and replacement of the media (in the absence of stimuli, FIG. 2B). The promotion of chondrogenic differentiation was not altered or enhanced upon longer treatment with the stimuli (data not shown).
as §1

SMILES | EC50 [2] [µM] | EC50 (hMSCs) [µM] | IC50 [1] [µM] | induction of chondrogenic differentiation of hMSCs (hMSCs; compared with known inducers TGFβ3, BMP7 or BMP2, FIG. 2B)
Cc1cncc(NC(=O)c2ccccc2C(=O)O)c1 [Compound L5] | 0.6 | > 10 | 2.4 | 
O=C(O)c1ccccc1C(=O)Nc1ccc(I)cc1 [Compound L11a, 2-((4-iodophenyl)carbamoyl)benzoic acid] | > 10 | > 10 | > 10 | 
O=C(O)c1ccccc1C(=O)Nc1ccc(F)cc1 | > 10 |  | 0.0125 | 
COc1ccc(NC(=O)c2ccccc2C(=O)O)cc1 [Compound L2, 2-((4-methoxyphenyl)carbamoyl)benzoic acid] | > 10 | > 10 |  | 
N#CCc1ccc(NC(=O)c2ccccc2C(=O)O)cc1 [Compound L13] | > 10 | > 10 | > 10 | 
O=C(O)c1ccccc1C(=O)Nc1ccc(CCO)cc1 [Compound L11c, 2-((4-(2-hydroxyethyl)phenyl)carbamoyl)benzoic acid] | 0.125 | > 10 | > 10 | 
O=C(O)c1ccccc1C(=O)Nc1ccc(CO)cc1 [AKT-CH2OH, 2-((4-(hydroxymethyl)phenyl)carbamoyl)benzoic acid] | 0.04 | 8.46 | 0.27 | 
N#Cc1ccc(NC(=O)c2ccccc2C(=O)O)cc1 [AKT-CN] | 0.137 | 0.108 | 0.03 | more potent and efficient
O=C(O)c1ccccc1C(=O)Nc1ccc([N+](=O)[O-])cc1 |  |  | > 10 | 
CC(=O)c1ccc(NC(=O)c2ccccc2C(=O)O)cc1 [drawing 168] |  |  | > 10 | 
CCOc1ccc(NC(=O)c2cccc(O)c2C(=O)O)cc1 |  |  | > 10 | 
C=COc1ccc(NC(=O)c2ccccc2C(=O)O)cc1 |  |  | > 10 | 
COC(=O)c1cc(C(=O)O)ccc1C(=O)Nc1ccc(C(=O)O)cc1 |  |  | > 10 | 
O=C(O)c1ccccc1C(=O)Nc1ccc(C(=O)N2CCOCC2)cc1 |  |  | > 10 | 
CCN(CC)c1ccc(NC(=O)c2ccccc2C(=O)O)cc1 |  |  | 2.98 | 
O=C(O)c1ccccc1C(=O)Nc1ccc(C(F)(F)F)cc1 [Compound L4, 2-((4-(trifluoromethyl)phenyl)carbamoyl)benzoic acid] | 9.5 | 11.1 | 22.1 | 

SMILES | EC50 [2] [µM] | EC50 (hMSCs) [µM] | IC50 [1] [µM] | induction of chondrogenic differentiation of hMSCs (hMSCs; compared with known inducers TGFβ3, BMP7 or BMP2, FIG. 2B)
O=C(O)c1cc([N+](=O)[O-])ccc1C(=O)Nc1ccc(-c2ccccc2)cc1 |  |  | > 10 | 
CNC(=O)c1ccccc1C(=O)O [AKT-NHMe] | 2.7 | 0.24 | 0.0046 | 
Cc1ccc(C(=O)Nc2ccc(-c3ccccc3)cc2)c(C(=O)O)c1 [AKT-Me] | > 10 | > 10 | > 10 | 
[N-]=[N+]=Nc1ccc(C(=O)NCCCNC(=O)c2ccccc2C(=O)NNC(=O)CCOCCC2SCC3NC(=O)NC32)c(O)c1 (centres unmarked) [AKT-azide] |  | 0.654 | 0.12 | 
CCCOC(=O)c1ccc(NC(=O)c2ccccc2C(=O)O)cc1 | > 10 |  | 0.624 | 
CC(C)(C)Oc1ccc(NC(=O)c2ccccc2C(=O)O)cc1 |  |  | > 10 | 
O=C(O)c1ccc(C(=O)Nc2ccc(I)cc2)c(C(=O)O)c1 |  |  | > 10 | 
C#CCOC(=O)c1ccccc1C(=O)Nc1ccc(Cl)cc1 |  |  | > 10 | 
O=C(c1ccccc1)c1ccc(NC(=O)c2ccccc2C(=O)O)cc1 | > 10 |  | 2.5 | 
O=C(O)c1ccccc1C(=O)Nc1ccc(OC(F)F)cc1 |  |  | > 10 | 
O=C(O)c1ccc(C(=O)Nc2ccc(Br)cc2)c(C(=O)O)c1 |  |  | > 10 | 
CCc1ccc(NC(=O)c2ccc(C(=O)O)cc2C(=O)O)cc1 |  |  | 0.925 | 
O=C(O)c1ccccc1C(=O)Nc1ccc(S(=O)(=O)N2CCCCC2)cc1 |  |  | 2.7 | 
O=C(O)c1ccccc1C(=O)Nc1ccc(Oc2ccccc2)cc1 |  |  | > 10 | 
COC(=O)c1ccccc1C(=O)Nc1ccc(C#N)cc1 |  |  | > 10 | 
CC(C)(C)c1ccc(NC(=O)c2cc(Cl)c(Cl)cc2C(=O)O)cc1 |  |  | > 10 | 

Continued, in another order:

EC50 [2] [µM] | EC50 (hMSCs) [µM] | SMILES | IC50 [1] [µM] | induction of chondrogenic differentiation of hMSCs (hMSCs; compared with known inducers TGFβ3, BMP7 or BMP2, FIG. 2B)
0.014 |  | Cc1ccc(NC(=O)c2ccccc2C(=O)O)c(C(=O)O)c1 [LK60, 2-(2-carboxybenzamido)-5-methylbenzoic acid] | 1.25 | 
0.0015 | 0.05 | O=C(O)c1ccccc1C(=O)Nc1ccc(-c2ccccc2)cc1 [LK18b] | 2.7 | 
0.126 |  | O=C(O)c1ccc(NC(=O)c2ccccc2C(=O)O)cc1Cl [LK63, 4-(2-carboxybenzamido)-2-chlorobenzoic acid] | 0.0298 | 
9.1 | > 10 | O=C(O)c1ccccc1C(=O)Nc1ccc(N2CCOCC2)cc1 [LK6, 2-((4-morpholinophenyl)carbamoyl)benzoic acid] | > 10 | 
5 |  | O=C(O)c1ccccc1C(=O)Nc1ccccc1 [LK49] | > 10 | 
> 10 | > 10 | O=C(O)c1ccccc1C(=O)Nc1ncc(-c2ccc(F)c(F)c2)s1 [LK35] | 0.03 | 
0.398 |  | O=C(O)c1ccc(CNC(=O)c2ccccc2C(=O)O)cc1 [LK64] | 0.981 | 
3.8 | 33.3 | O=C(O)c1cc(S(=O)(=O)c2ccc(C(=O)Nc3ccc(-c4ccccc4)cc3)c(C(=O)O)c2)ccc1C(=O)Nc1ccc(-c2ccccc2)cc1 [LK4] | > 10 | 
0.052 |  | CN1C(=O)c2ccc(NC(=O)c3ccccc3C(=O)O)cc2C1=O [LK61] | 1.69 | 
0.124 |  | COC(=O)c1ccccc1C(=O)Nc1ccc(-c2ccccc2)cc1 [LK55b, Methyl 2-([1,1′-biphenyl]-4-ylcarbamoyl)benzoate] | 0.234 | 
0.005 |  | O=C(O)c1ccc(NC(=O)c2ccccc2C(=O)O)cc1 [LK53] | 0.146 | 
9.1 | > 10 | NS(=O)(=O)c1ccc(NC(=O)c2ccccc2C(=O)O)cc1 [LK8] | > 10 | 
> 10 | > 10 | O=C(O)c1ccccc1C(=O)Nc1ccc(Nc2ccccc2)cc1 [LK7] | > 10 | 
0.0046 | > 10 | O=C(O)c1cc(O)ccc1C(=O)Nc1ccc(-c2ccccc2)cc1 [LK22b, 2-([1,1′-biphenyl]-4-ylcarbamoyl)-5-hydroxybenzoic acid] | > 10 | 
0.12 | > 10 | O=C(O)c1ccccc1C(=O)Nc1ccc(CCCc2ccccn2)cc1 [LK15, 2-((4-(3-(pyridin-2-yl)propyl)phenyl)carbamoyl)benzoic acid] | > 10 | 
0.371 |  | O=C(O)c1ccccc1C(=O)Nc1ccc([N+](=O)[O-])cn1 [LK59, 2-((5-nitropyridin-2-yl)carbamoyl)benzoic acid] | 0.491 | 
3.36 |  | O=C(O)c1ccccc1C(=O)Nc1ccc2c(c1)OCO2 [LK62, 2-(benzo[1,3]dioxol-5-ylcarbamoyl)benzoic acid] | 0.145 | 
